Results reported in patent publication US9821026B2, “Use of RET agonist molecules for haematopoietic stem cell expansion protocols and transplantation therapy and a RET agonist kit” (Instituto de Medicina Molecular, priority 2012, dated 2017).

Legend:
[1] = test system: E14.5 LSK cells; test: Survival (AnnexinV) of LSK/HSC cells cultured with GFL/GFRα; type: cell-based, mouse; settings: versus conventional medium / medium alone, FIG. 3d-e, FIG. 10c
Method: (§1) 10^6 E14.5 WT Lin^negcKit^pos cells were cultured in DMEM and starved for 2 hours. To test CREB phosphorilation upon GFL stimulation Lin^negcKit^poscells were stimulated 1 hour with 500 ng/ml of each GFL and co-receptor. LSK cells were purified by flow cytometry and stimulated overnight with GFL/GFRα combinations in order to determine Bcl2 and Bcl2l1 expression levels. For inhibition experiments cells were incubated 2 hours prior GFLs stimulation, to test CREB phosphorilation, or during overnight stimulation with GFLs, to determine Bcl2 and Bcl2l1 expression levels, with SB 202190 and PD98,059 from Sigma-Aldrich or Akt1/2, Akt Inhibitor VIII and CBP-CREB Interaction Inhibitor from Calbiochem. Lin^negcKit^pos cells were stimulated with GFL/GFRα for 120 hours and 2.5×10^5 CD45.2^posLin^negcKit^pos cells were sequentially analysed by flow cytometry and transplanted into lethally irradiated hosts with a radio-protective dose 2.5×10^5 CD45.1 BM cells. To detect Annexin V, 4×10^4 E14.5 WT or Ret^−/−Lin^negckit^pos cells per well were cultured overnight in DMEM alone or with GFL/GFRα. When analysed by flow cytometry haematopoietic progenitors were further stained with an LSK antibody cocktail.

[2] = test system: HSCs; test: HSC expansion in culture with RET ligands (recovered LSKs and HSCs treated with GFLs for 4 days); type: cell-based, mouse; settings: for HSC expansion in culture (true HSCs recovered): versus conventional medium only, FIG. 3d
[3] = test system: RET; test: Flow cytometry of kinase/CREB phosphorylation in LSK cells upon GFL stimulation; type: cell-based, mouse; settings: GFLs for 1 h, FIG. 3g
Method: Intracellular stainings were done using BrdU Flow Kit and anti-BrdU (3D4), 7AAD, anti-Ki-67 (B56), anti-S6 (pS235/pS236) (N7-548) and anti-Akt (pT308) (JI-223.371) from BD Pharmingen, anti-human RET (132507) from R&D Systems, anti-PIP3 (Z-P345) from Echelon Biosciences, anti-CREB (pS133) (87G3), anti-p38 (pT180/Y182) (28B10), anti-Akt (pS473) (D9E) and anti-ERK1/2 (pT202/pY204) (D13.14.4E) from Cell Signaling Technology.
10^6 E14.5 WT Lin^negcKit^pos cells were cultured in DMEM and starved for 2 hours. To test CREB phosphorilation upon GFL stimulation Lin^negcKit^poscells were stimulated 1 hour with 500 ng/ml of each GFL and co-receptor. LSK cells were purified by flow cytometry and stimulated overnight with GFL/GFRα combinations in order to determine Bcl2 and Bcl2l1 expression levels. […] Lin^negcKit^pos cells were stimulated with GFL/GFRα for 120 hours and 2.5×10^5 CD45.2^posLin^negcKit^pos cells were sequentially analysed by flow cytometry and transplanted into lethally irradiated hosts with a radio-protective dose 2.5×10^5 CD45.1 BM cells. […] When analysed by flow cytometry haematopoietic progenitors were further stained with an LSK antibody cocktail.

[4] = test system: RET; test: Bcl2 and Bcl2l1 expression (RT-PCR) in LSK cells upon GFL treatment; type: cell-based, mouse; settings: overnight GFL/GFRα stimulation; FIG. 3h
Method: as §1, with “To detect Annexin V, 4×10^4 E14.5 WT or Ret^−/−Lin^negckit^pos cells per well were cultured overnight in DMEM alone or with GFL/GFRα.” left out
Real-time PCR analysis: RNA was extracted from cell suspension using RNeasy Mini Kit or RNeasy Micro Kit (Qiagen). […] Variance was analyzed using F-test. […] Kaplan-Meier survival curves were analyzed using a log rank test. […]

[5] = test system: lethally irradiated mice; test: Competitive transplantation of GFL pre-treated progenitors into lethally irradiated hosts; type: in vivo, mouse; settings: FIG. 4e-g
Method: Mice: C57BL/6J (CD45.2 and CD45.1), Rag1^−/− (CD45.2 and CD45.1)^29, Vav1-iCre^11, Gfra1^−/−22, Gfra2^−/−24, Gfra3^−/−23, Ret^MEN2B20 and Ret^−/−9 were on a C57BL/6J genetic background. All mice strains were bred and maintained at IMM animal facility. Animal procedures were performed in accordance to national and institutional guidelines. Generation of Ret Conditional Knockout Mice: To generate mice harbouring a conditional Ret knock-out allele we engineered a targeting construct that firstly, included the introduction of a floxed 2.1 kb, Neomycin resistance (Neo^r) cassette under the control of the phosphoglycerate kinase-1 (PGK) promoter and a polyA tail (pA). This cassette (PGK-NEO^r-pA) was inserted approximately 4.5 kb upstream at the Xho I site of the pBluescript KS (pBS KS) vector that carried approximately 13 kb of the 5′ end of mouse Ret genomic locus flanking exon 1. […] Colony-Forming Units Assays: 5×10^3 E14.5 Lin^negcKit^pos cells MACS purified (MiltenyiBiotec) from WT, Ret^−/− or Ret^MEN2B were cultured in M3434 (Stem Cell Technologies) and scored at day 8 to 10 by flow cytometry and microscope analysis. 3×10^4 E14.5 Lin^negcKit^pos cells were MACS (MiltenyiBiotec) purified from WT, Ret^−/− or Ret^MEN2B and were injected into lethally irradiated mice (9Gy) and CFUs scored after 8 to 10 days by flow cytometry and microscope analysis. […]

## glial cell-line derived neurotrophic factor (GDNF) ligands [GFLs]
[1]
  LSK and HSC survival in culture: efficiently increased LSK and HSC survival
[1]; listed as RET ligands
  LSK and HSC survival in culture: survive almost three times better
[2]; RET agonist treatment
  differentiation of cells in expansion culture: do not alter the differentiation of cells
[2]; listed as RET agonist
  HSC expansion in culture (true HSCs recovered): three times more true HSCs
[2]; listed as RET ligands
  HSC expansion in culture (true HSCs recovered): three times higher
[2]; versus current conventional medium
  number of cells recovered in expansion culture: duplicate the number or cells recovered
[2]; versus current state-of-the-art expansion methods
  increase of bona fide HSCs that maintain their stemness: 20 fold
[3]
  ERK1/2, PI3K/Akt phosphorylation in LSKs: stable
[3]; FIG. 10e
  p38/MAP kinase and CREB phosphorylation in LSKs: rapid p38/MAP kinase and CREB phosphorylation
[4]
  Bcl2/Bcl2l1 expression by LSKs: increased Bcl2/Bcl2l1 expression
[5]; E14.5 LSKs treated with GFLs, transplanted with competitor CD45.1 BM, versus untreated
  transplantation fitness and HSC engraftment: strikingly increased transplantation fitness and HSC engraftment
[5]; versus HSCs expanded in conventional medium
  increase in transplantation efficiency of expanded HSCs: circa 300 fold
